The values below are quoted from earlier work in US20150030666A1, “ADHESIVE SKIN PATCH” (KM TRANSDERM LTD., priority 2011, published 2015).

The conditions of this series: in vivo, po.

For the molecule `O=C(O[C@H]1CN2CCC1CC2)N1CCc2ccccc2[C@@H]1c1ccccc1` [solifenacin succinate, (3R)-1-azabicyclo[2.2.2]oct-3-yl(1S)-1-phenyl-3,4-dihydroisoquinoline-2(1H)-carboxylate], the half-life in blood entry is listed as “about 50 hr”.
